Data taken from patent US20230241155A1, “METHODS AND MEANS FOR MODIFYING HEMODYNAMICS IN INFECTIONS” (Biotempt B.V., priority 2020, published 2023).
“Also recorded” adds a separate entry of the source. Where two headings read alike, the source gives them in different places. Each block holds one compound with its values, some of them ahead of it. Peptide text beside a SMILES is read from it.

Tests used:
[1] = Adverse events (AEs) in the EASI-study (phase II, CABG patients); format: in vivo, human
Protocol: A prospective, randomized, double-blind, placebo-controlled study was performed in which 180 elective patients undergoing on-pump coronary artery bypass grafting were enrolled. Patients were randomized in a 1:1 ratio and received either EA-230, 90 mg/kg/hour, or a placebo. These were infused at the start of the surgical procedure until the end of the use of the cardiopulmonary bypass. The main focus in this first-in-patient study was on safety and tolerability of EA-230. The primary efficacy endpoint was the modulation of the inflammatory response by EA-230. A key secondary endpoint was the effect of EA-230 on renal function.
The present study was a single-center, prospective, double-blind, placebo-controlled, randomized, single-dose phase II study. It has an adaptive design to evaluate the safety and immunomodulatory effects of EA-230 in patients undergoing for coronary artery bypass grafting (CABG). 180 eligible patients were included and were randomized to receive either active or placebo treatment in a 1:1 ratio. This was a first-in-patient safety and tolerability study, of which the primary efficacy objective was to assess the immunomodulatory effects of EA-230. The key-secondary efficacy endpoint was the effect of EA-230 on renal function. This study was described in accordance with the Standard Protocol Items: Recommendations for Interventional Trial (SPIRIT) guidelines, and registered at clinicaltrials.gov under number NCT03145220.
Intravenous infusion of EA-230, 90 mg/kg/hour, or placebo, was initiated at the moment of first surgical incision using an automated infusion pump. Infusion rate was set at 250 mL/hour, and infusion was continued until cessation of the CPB, or after 4 hours of continuous infusion, whichever comes first.
All AEs were judged by the investigators with regard to severity (“mild, moderate, or severe”) according to Common Terminology Criteria for Adverse Events guidelines 4.030 and their perceived relation to the study drug (“definitely, probably, possibly, or unrelated/unlikely to be related”). SAEs or SUSARs include death, life-threatening disease, persistent and/or significant disability and/or incapacity, and hospitalization and/or prolongation of inpatient hospitalization.

[2] = Solubility / aggregation screen of AQGV peptide salts; settings: for aggregation in aqueous solution: in relation to peptide-acetate aggregation
From the text: FIG. 7: Overview of solubility experiments with results in Table 1.

- solubility (aggregation point) [2]: did not provide solubility
- aggregation in aqueous solution [2]: aggravated aggregation
Compound: Nc1ncnc2c1ncn2[C@@H]1O[C@H](CO)[C@@H](O)[C@H]1O [adenosine]

- aggregation in aqueous solution [2]: aggravated aggregation
- solubility (aggregation point) ([2]; solubility in 0.9% NaCl, compared to AQGV-Ac): lower solubility
Compound: O=C(O)/C=C\C(=O)O [maleic acid]

Further lines, the compound ahead of its results:

Compound: CC(C)[C@H](NC(=O)CNC(=O)[C@H](CCC(N)=O)NC(=O)[C@H](C)N)C(=O)O [EA-230, AQGV] (H-AQGV-OH)
- AE of mild intensity, % of patients ([1]; EA-230 group N = 91): (83.5) %
- AE of mild intensity, e = Number of events ([1]; EA-230 group N = 91): 188
- AE of mild intensity, n = Number of patients experiencing the event ([1]; EA-230 group N = 91): 76
- AE of moderate intensity, % of patients ([1]; EA-230 group N = 91): (24.2) %
- AE of moderate intensity, e = Number of events ([1]; EA-230 group N = 91): 23
- AE of moderate intensity, n = Number of patients experiencing the event ([1]; EA-230 group N = 91): 22
- AE of severe intensity, % of patients ([1]; EA-230 group N = 91): (5.5) %
- AE of severe intensity, e = Number of events ([1]; EA-230 group N = 91): 6
- AE of severe intensity, n = Number of patients experiencing the event ([1]; EA-230 group N = 91): 5
- Anemia, % of patients ([1]; EA-230 group N = 91): (5.5) %
- Anemia, e = Number of events ([1]; EA-230 group N = 91): 5
- Anemia, n = Number of patients experiencing the event ([1]; EA-230 group N = 91): 5
- Any AE, % of patients ([1]; EA-230 group N = 91): (85.7) %
- Any AE, n = Number of patients experiencing the event ([1]; EA-230 group N = 91): 78
- Any SAE, % of patients ([1]; EA-230 group N = 91): (13.2) %
- Any SAE, e = Number of events ([1]; EA-230 group N = 91): 23
- Any SAE, n = Number of patients experiencing the event ([1]; EA-230 group N = 91): 12
- Any SUSAR, % of patients ([1]; EA-230 group N = 91): (0) %
- Any SUSAR, e = Number of events ([1]; EA-230 group N = 91): 0
- Any SUSAR, n = Number of patients experiencing the event ([1]; EA-230 group N = 91): 0
- Blood and lymphatic system disorders Overall, % of patients ([1]; EA-230 group N = 91): (5.5) %
- Blood and lymphatic system disorders Overall, e = Number of events ([1]; EA-230 group N = 91): 6
- Blood and lymphatic system disorders Overall, n = Number of patients experiencing the event ([1]; EA-230 group N = 91): 5
- Delirium, % of patients ([1]; EA-230 group N = 91): (5.5) %
- Delirium, e = Number of events ([1]; EA-230 group N = 91): 5
- Delirium, n = Number of patients experiencing the event ([1]; EA-230 group N = 91): 5
- Fluid retention, % of patients ([1]; EA-230 group N = 91): (2.2) %
- Fluid retention, e = Number of events ([1]; EA-230 group N = 91): 2
- Fluid retention, n = Number of patients experiencing the event ([1]; EA-230 group N = 91): 2
- Gastrointestinal disorders Overall, % of patients ([1]; EA-230 group N = 91): (23.1) %
- Gastrointestinal disorders Overall, e = Number of events ([1]; EA-230 group N = 91): 27
- Gastrointestinal disorders Overall, n = Number of patients experiencing the event ([1]; EA-230 group N = 91): 21
- Hemorrhagic diathesis, % of patients ([1]; EA-230 group N = 91): (1.1) %
- Hemorrhagic diathesis, e = Number of events ([1]; EA-230 group N = 91): 1
- Hemorrhagic diathesis, n = Number of patients experiencing the event ([1]; EA-230 group N = 91): 1
- Infections and infestations Overall, % of patients ([1]; EA-230 group N = 91): (14.3) %
- Infections and infestations Overall, e = Number of events ([1]; EA-230 group N = 91): 15
- Infections and infestations Overall, n = Number of patients experiencing the event ([1]; EA-230 group N = 91): 13
- Metabolism and nutrition disorders Overall, % of patients ([1]; EA-230 group N = 91): (11) %
- Metabolism and nutrition disorders Overall, e = Number of events ([1]; EA-230 group N = 91): 10
- Metabolism and nutrition disorders Overall, n = Number of patients experiencing the event ([1]; EA-230 group N = 91): 10
- Nausea, % of patients ([1]; EA-230 group N = 91): (16.5) %
- Nausea, e = Number of events ([1]; EA-230 group N = 91): 15
- Nausea, n = Number of patients experiencing the event ([1]; EA-230 group N = 91): 15
- Psychiatric disorders Overall, % of patients ([1]; EA-230 group N = 91): (9.9) %
- Psychiatric disorders Overall, e = Number of events ([1]; EA-230 group N = 91): 9
- Psychiatric disorders Overall, n = Number of patients experiencing the event ([1]; EA-230 group N = 91): 9
- Renal and urinary disorders Overall, % of patients ([1]; EA-230 group N = 91): (4.4) %
- Renal and urinary disorders Overall, e = Number of events ([1]; EA-230 group N = 91): 4
- Renal and urinary disorders Overall, n = Number of patients experiencing the event ([1]; EA-230 group N = 91): 4
- safety and tolerability ([1]; clinical trials / throughout surgery): safe and well tolerated; also recorded: found to be safe

Compound: AQGV-citrate
- behaviour of highly concentrated solution [2]: does not crystallize or aggregate but tend to form a highly viscous solution
- solubility (aggregation point) [2]: Higher solubility
- aggregation in aqueous solution [2]: (strongly) reduced aggregation

Compound: Nc1ncnc2c1ncn2[C@@H]1O[C@H](COP(=O)(O)O)[C@@H](O)[C@H]1O [adenosine-monophosphate]
- solubility (aggregation point) [2]: did not provide solubility
- aggregation in aqueous solution [2]: aggravated aggregation
